From US20060014776A1, “Antitumoral compounds” (Instituto Biomar S.A., priority 2004, published 2006) come the findings set out here.

Data set [1] deals with L1210 (lymphocytic leukemia). Description: Disk diffusion soft agar colony formation assay, L1210. In kind it is cell-based, murine. The note with it: 7.5 μg/ml. An excerpt:
(§1) An in vitro cell-based assay was employed to identify solid tumor selectivity for compound IV. The differential cytotoxicity (Valeriote, F.; Grieshaber, C. K.; Media, J.; Pietraszkiewicz, H.; Hoffman, J.; Pan, M.; McLaughlin, S. J. Exp. Ther. Oncol. 2002, 2, 228-236) is expressed by observing a zone differential between any solid tumor cell (Colon38, ColonH116, Lung H125) and either leukemia cells (L1210 or CEM) or normal cells (CFU-GM). A sample is designated as “solid tumor selective” if (zone units of solid tumor—normal cells or leukemia cells) is greater than 250 units.
(§2) Colon 38 gives a good monodispersed cell suspension with mechanical disruption from a mouse tumor. […]
(§3) All of the human cancer cell lines are maintained in cell culture. […] The cells are passed through an 18-gauge needle twice and the monodispersed suspension counted. […]
(§4) A volume of 15 μl of each sample is dropped onto a 6.5 mm disk (Baxter filter disks). […] The plates are incubated for 7-10 days (depending upon the cell type) and examined by an inverted stereo-microscope (10×) for measurement of the zone of inhibition measured from the edge of the filter disk to the beginning of normal-sized colony formation. […] At some dilution, quantifiable cytotoxicity is invariably obtained.
(§5) • a Measured in zone units: 200 zone units=6 mm. […]

Data set [2] concerns C38 (colon adenocarcinoma). Description: Disk diffusion soft agar colony formation assay, C38. In kind it is cell-based, murine.
Excerpt: as §1, §2, §3, §4, §5

For data set [3], the system named is CFU-GM-m (colony-forming unit-granulocyte macrophage; normal hematopoietic). Briefly: Disk diffusion soft agar colony formation assay, CFU-GM-m. In kind it is cell-based, murine. The note with it: 7.5 μg/ml.
Excerpt: as §1, §2, §3, §4, §5
For orientation: In agar diffusion tests the substance spreads into inoculated agar from a disc or well.

The subject of data set [4] is H116 (colon). Description: Disk diffusion soft agar colony formation assay, H116. In kind it is cell-based, human.
Excerpt: as §1, §2, §3, §4, §5

In data set [5] the test system is H125 (lung). Briefly: Disk diffusion soft agar colony formation assay, H125. In kind it is cell-based, human.
Excerpt: as §1, §2, §3, §4, §5

Data set [6] concerns CEM (leukemia). Briefly: Disk diffusion soft agar colony formation assay, CEM. In kind it is cell-based, human.
Excerpt: as §1, §2, §3, §4, §5

The subject of data set [7] is CFU-GM-h (colony-forming unit-granulocyte macrophage; normal hematopoietic). Description: Disk diffusion soft agar colony formation assay, CFU-GM-h. In kind it is cell-based, human. The note with it: 7.5 μg/ml.
Excerpt: as §1, §2, §3, §4, §5

Data set [8] relates to H116 human colon cells. Briefly: Clonogenic assay. In kind it is cell-based. On the procedure:
Concentration- and time-survival studies will be carried out against HCT-116 cells. HCT-116 cells are seeded at 200 to 20,000 cells in 60 mm dishes. Drug is added to the medium (RPMI+10% FBS) at concentrations of 1 mg/ml and 10-fold dilutions thereof. […] The dishes are incubated for 7 days, media removed and the colonies stained with methylene blue. Colonies containing 50 cells or more are counted. The results are normalized to an untreated control. Plating efficiency for the untreated cells is about 90%. Repeat experiments are carried out to define the cell survival range between 100% and […]. Subsequently, a concentration is chosen that yields a survival of 10^−2 at 24 hr and time-survival studies carried out from 0 to 48 hr. Both concentration- and time-survival curves are constructed so that AUC values can be calculated. A comparison of tumor to normal provides a theoretical basis for determining whether a compound might be active in therapeutic trials in vivo.

The conditions of data set [9]: mouse, in vivo. As for the experimental part: In this dose calculation stage, the projected starting dose is based primarily on the solubility of the new compound. Potential doses are calculated on the basis of blood volume and total body water in mice.
The starting dose is selected on the basis of solubility of the compound in biologically compatible solvents, and the potency derived from in vitro studies.
To start, one normal SCID mouse is dosed intravenously with the solubilized/formulated compound via a one-hour infusion at a maximum dose of 20 mg/mL. The volume infused is 0.25 ml over the one-hour period. If the animal survives the dosing period, clinical signs are noted, and the animal is sacrificed at two hours post infusion and blood collected for subsequent analytical determinations. Two additional SCID mice are then similarly infused with the compound, one being sacrificed at the end of infusion and blood collected and analyzed for drug concentration. The third animal is housed for 2 weeks to ascertain survival, and then euthanized. During the two-week observation period, the animal will be monitored for clinical signs of distress and euthanized if moribund. The dosing data and pharmacologic information (estimate of half-life) from these three animals will guide the subsequent time-course study by approximating a tolerable dose and clearance of the agent. […]

Data set [10] in a line: Pharmacokinetics. In kind it is in vivo, male SCID mice bearing H116 tumors. The note with it: 18.5 mg/kg. On the procedure: Compound IV was administered at 18.5 mg/kg to male SCID mice bearing H116 tumors.
By 24 h after drug administration, the concentration of compound IV is about 100 ng/ml.

Data set [11] concerns HCT-116 cells in SCID mice. Briefly: In vivo therapeutic trials. The note with it: for time taken for tumor volume to reach 4-times the initial volume: control 7 days. As for the experimental part:
For the in vivo studies HCT-116 cells in SCID mice will be used. Individual mouse body weights for each experiment are within 5 g and all mice are over 17 g at the start of therapy. The mice are supplied food and water ad libidum. The animals are pooled, implanted subcutaneously with 10^7 cultured cells, and pooled again before distribution to treatment and control groups. Chemotherapy is started when the tumors reach a measurable size (about 150 mm^3). Initially, a 1 hour intravenous infusion will be given and the whole animal toxicity and therapeutic effect correlated with the pharmacology studies described above. Dosage levels are usually closely spaced (2-fold increments or 0.5 decrements). All drugs will be administered intravenously. Mice are killed when their tumors reach 1500 mm^3. Tumor weights are estimated from 2-dimensional caliper measurements done twice a week: Tumor Weight (mg)=(a×b^2)/2 • where a and b are the tumor length and width, respectively, in mm.
For this in vivo study with compound IV, 4 mice were in the control group, 4 in the 2 mg/ml and 1 in the 3 mg/ml groups.
The data were analyzed in terms of time taken for tumor volume to reach 4-times the initial volume. For control tumors this was 7 days, for the 2 mg/ml (0.5 mg/mouse; 25 mg/kg) dose, this was 10 days; and for the 3 mg/ml (0.75 mg/mouse; […]), this was 15 days. Thus, at the maximum tolerated dose there was a T/C of about 50%.

With `COc1cc(-c2ccnc3c2C(=O)c2ncc(C)cc2C3=O)ccc1OCCCN` [Compound IV], the “zone of inhibition L1210” value in data set [1] worked out at 500 zone units. Moreover, the figures for the “zone of inhibition C38” value in data set [2] (1.9 μg/ml) and in data set [2] (7.5 μg/ml) were 100 zone units and 550 zone units, respectively. For the same compound, the “zone of inhibition CFU-GMm” value in data set [3] is recorded as 650 zone units. The “zone of inhibition H116” value stood at 350 zone units in data set [4] (1.9 μg/ml) and 800 zone units in [4] (7.5 μg/ml). The “zone of inhibition H125” value was 600 zone units in [5] (1.9 μg/ml) and more than 1000 zone units in [5] (7.5 μg/ml). The results for the “zone of inhibition CEM” value in [6] (1.9 μg/ml) and in data set [6] (7.5 μg/ml) were 150 zone units and 550 zone units, respectively. In addition, the “zone of inhibition CFU-GMh” value in [7] worked out at 650 zone units. Moreover, the entries for the “concentration at which a therapeutic effect would be obtained” value in data set [8] (7-day continuous exposure) and in [8] (maintained for a 24 h period) were approximately 0.2 µg/mL and approximately 10 µg/mL, respectively. In [9] (SCID), the “Lethal Dose” value stood at 50 mg/kg. Also, in [9] (40 mg/kg), the observation after injection result is on record as “survived but looked shaky right after injection”. Moreover, in data set [10] (over at least a 2-h period), the “concentration attained in the plasma” value is given as “approximately 1 μg/ml”. For the same compound, in [10] (over at least a 2-h period), the “concentration attained in the tumor” value is “approximately 1 μg/ml”. In data set [10] (male, SCID, mouse, in vivo, 24 h after drug administration, read-out: concentration of compound IV), the concentration at 24 h is approximately 100 ng/mL. In addition, the figures for the “time taken for tumor volume to reach 4-times the initial volume” value in data set [11] (2 mg/ml (0.5 mg/mouse; 25 mg/kg) dose) and in [11] (3 mg/ml (0.75 mg/mouse; 38.5 mg/kg)) were 10 days and 15 days, respectively. For the same compound, the T/C entry in data set [11] (at the maximum tolerated dose) is given as “about 50%”.
